Source: ChEMBL document CHEMBL4610097, “Daphnane Diterpenoids from Daphne genkwa Inhibit PI3K/Akt/mTOR Signaling and Induce Cell Cycle Arrest and Apoptosis in Human Colon Cancer Cells” (J Nat Prod, 2020)
Active and inactive are the calls of the source. The rule behind the calls is not given here.

Assays:
SW-620 [1] = assay: Effect on AKT expression in human SW620 cells at 0.74 to 11.84 uM after 24 hrs by Western blot analysis; format: cell-based; settings: sw-620, 24 h
SW-620 [2] = assay: Effect on mTOR expression in human SW620 cells at 0.74 to 11.84 uM after 24 hrs by Western blot analysis; format: cell-based; settings: sw-620, 24 h
SW-620 [3] = assay: Downregulation of PI3K p85 expression in human SW620 cells at 0.74 to 11.84 uM after 24 hrs by Western blot analysis; format: functional, cell-based
SW-620 [4] = assay: Induction of apoptosis in human SW620 cells assessed as increase in cleaved caspase-3 at 0.74 to 11.84 uM after 24 hrs by Western blot analysis; format: functional, cell-based
SW-620 [5] = assay: Induction of cell cycle arrest in human SW620 cells assessed as accumulation at S phase at 0.74 uM after 24 hrs by propidium iodide staining-based flow cytometric analysis (reference value: 23.83%); format: functional
SW-620 [6] = assay: Induction of cell cycle arrest in human SW620 cells assessed as accumulation at S phase at 11.84 uM after 24 hrs by propidium iodide staining-based flow cytometric analysis (reference value: 23.83%); format: functional
SW-620 [7] = assay: Induction of apoptosis in human SW620 cells assessed as late apoptotic cells at 0.74 uM after 24 hrs by annexin V/propidium iodide staining-based flow cytometric analysis (reference value: 2.40%); format: functional
SW-620 [8] = assay: Induction of apoptosis in human SW620 cells assessed as viable cells at 0.74 uM after 24 hrs by annexin V/propidium iodide staining-based flow cytometric analysis (reference value: 96.9%); format: functional; settings: SW-620, 24 h, read-out: Activity
SW-620 [9] = assay: Induction of apoptosis in human SW620 cells assessed as increase in cleaved caspase-9 at 0.74 to 11.84 uM after 24 hrs by Western blot analysis; format: functional, cell-based
SW-620 [10] = assay: Induction of apoptosis in human SW620 cells assessed as necrotic cells at 0.74 uM after 24 hrs by annexin V/propidium iodide staining-based flow cytometric analysis (reference value: 0.30%); format: functional
SW-620 [11] = assay: Induction of apoptosis in human SW620 cells assessed as necrotic cells at 11.84 uM after 24 hrs by annexin V/propidium iodide staining-based flow cytometric analysis (reference value: 0.30%); format: functional
SW-620 [12] = assay: Induction of cell cycle arrest in human SW620 cells assessed as accumulation at G2/M phase at 1.48 uM after 24 hrs by propidium iodide staining-based flow cytometric analysis (reference value: 20.06%); format: functional
SW-620 [13] = assay: Induction of cell cycle arrest in human SW620 cells assessed as accumulation at S phase at 5.92 uM after 24 hrs by propidium iodide staining-based flow cytometric analysis (reference value: 23.83%); format: functional
SW-620 [14] = assay: Induction of cell cycle arrest in human SW620 cells assessed as accumulation at G0/G1 phase at 1.48 uM after 24 hrs by propidium iodide staining-based flow cytometric analysis (reference value: 56.11%); format: functional
SW-620 [15] = assay: Induction of apoptosis in human SW620 cells assessed as appearance of apoptotic bodies at 11.84 uM after 24 hrs by acridine orange/propidium iodide staining based microscopic analysis; format: functional, cell-based

C=C(C)[C@@]12O[C@@]3(/C=C/C=C/CCCCC)O[C@@H]1[C@@H]1[C@H](O)[C@@](O)(CO)[C@@H](O)[C@]4(O)C(=O)C(C)=C[C@H]4[C@@]1(O3)[C@H](C)[C@H]2OC(=O)c1ccccc1
Activity (SW-620 [1]): Non-Toxic
Activity (SW-620 [2]): Non-Toxic
Activity (SW-620 [3]): Active
Activity (SW-620 [4]): Active
Activity (SW-620 [5]): 14.24%
Activity (SW-620 [6]): 9.49%
Activity (SW-620 [7]): 15.9%
viability at 0.74 µM (SW-620 [8]): 80.8%
Activity (SW-620 [9]): Active
Activity (SW-620 [10]): 0.1%
Activity (SW-620 [11]): 1.64%
Activity (SW-620 [12]): 7.08%
Activity (SW-620 [13]): 11.73%
Activity (SW-620 [14]): 78.73%
Activity (SW-620 [15]): Active
